Measurements reported in ChEMBL document CHEMBL6109052, “Overview of the epigenetic/cytotoxic dual-target inhibitors for cancer therapy” (Eur J Med Chem, 2025).

Legend:
[1] = biological target: T1, Protein deacetylase HDAC6 (Homo sapiens, UniProt Q9UBN7); assay: Inhibition of HDAC6 (unknown origin)
T1 sequence (Q9UBN7 whole entry): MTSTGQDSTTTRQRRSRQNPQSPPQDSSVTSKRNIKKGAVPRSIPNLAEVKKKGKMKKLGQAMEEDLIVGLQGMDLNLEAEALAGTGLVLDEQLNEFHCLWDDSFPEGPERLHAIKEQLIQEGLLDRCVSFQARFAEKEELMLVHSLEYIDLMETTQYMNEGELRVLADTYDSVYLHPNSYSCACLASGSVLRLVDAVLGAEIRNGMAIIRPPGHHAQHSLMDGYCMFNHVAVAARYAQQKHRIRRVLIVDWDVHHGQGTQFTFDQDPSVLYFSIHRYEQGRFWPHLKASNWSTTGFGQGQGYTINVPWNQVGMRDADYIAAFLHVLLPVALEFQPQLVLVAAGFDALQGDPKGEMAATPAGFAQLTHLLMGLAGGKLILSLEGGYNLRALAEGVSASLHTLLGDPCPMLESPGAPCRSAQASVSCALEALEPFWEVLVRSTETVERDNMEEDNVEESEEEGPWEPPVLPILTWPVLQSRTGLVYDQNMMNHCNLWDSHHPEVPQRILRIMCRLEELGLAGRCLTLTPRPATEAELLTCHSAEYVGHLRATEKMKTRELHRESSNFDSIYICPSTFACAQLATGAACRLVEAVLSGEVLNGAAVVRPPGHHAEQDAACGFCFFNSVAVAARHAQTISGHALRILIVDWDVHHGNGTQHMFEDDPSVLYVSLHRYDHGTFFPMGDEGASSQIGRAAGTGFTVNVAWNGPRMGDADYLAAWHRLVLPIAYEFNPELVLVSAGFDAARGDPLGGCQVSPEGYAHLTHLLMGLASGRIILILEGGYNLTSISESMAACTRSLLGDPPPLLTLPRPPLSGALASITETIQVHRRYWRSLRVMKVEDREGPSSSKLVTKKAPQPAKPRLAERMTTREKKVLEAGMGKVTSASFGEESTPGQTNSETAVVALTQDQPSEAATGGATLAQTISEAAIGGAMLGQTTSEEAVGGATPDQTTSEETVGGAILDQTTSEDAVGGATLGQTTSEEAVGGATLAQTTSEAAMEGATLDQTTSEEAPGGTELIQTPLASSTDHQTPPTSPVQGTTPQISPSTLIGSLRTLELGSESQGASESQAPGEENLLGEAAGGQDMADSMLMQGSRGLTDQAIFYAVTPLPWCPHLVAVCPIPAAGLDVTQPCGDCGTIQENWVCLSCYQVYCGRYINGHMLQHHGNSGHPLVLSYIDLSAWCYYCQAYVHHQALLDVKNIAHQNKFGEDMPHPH

Histone deacetylase 3 = Histone deacetylase 3 (Homo sapiens, UniProt O15379); assay: Inhibition of HDAC3 (unknown origin)
Sequence of Histone deacetylase 3 (O15379 whole entry): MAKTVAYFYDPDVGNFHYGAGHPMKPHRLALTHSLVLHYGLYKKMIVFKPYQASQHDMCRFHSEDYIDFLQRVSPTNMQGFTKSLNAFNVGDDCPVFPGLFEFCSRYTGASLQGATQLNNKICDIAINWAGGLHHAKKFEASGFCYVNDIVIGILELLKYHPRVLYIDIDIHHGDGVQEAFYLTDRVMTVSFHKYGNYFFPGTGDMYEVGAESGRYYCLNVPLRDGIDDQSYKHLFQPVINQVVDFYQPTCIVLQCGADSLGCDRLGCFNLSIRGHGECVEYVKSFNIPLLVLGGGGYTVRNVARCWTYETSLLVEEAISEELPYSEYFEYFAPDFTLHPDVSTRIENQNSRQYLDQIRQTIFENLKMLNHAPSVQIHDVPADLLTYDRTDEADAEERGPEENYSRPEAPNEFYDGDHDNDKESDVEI

MGC-803 = assay: Antiproliferative activity against human MGC-803 cells by MTT assay; format: functional, cell-based
Histone deacetylase 2 = Histone deacetylase 2 (Homo sapiens, UniProt Q92769); assay: Inhibition of HDAC2 (unknown origin)
Sequence of Histone deacetylase 2 (Q92769 whole entry): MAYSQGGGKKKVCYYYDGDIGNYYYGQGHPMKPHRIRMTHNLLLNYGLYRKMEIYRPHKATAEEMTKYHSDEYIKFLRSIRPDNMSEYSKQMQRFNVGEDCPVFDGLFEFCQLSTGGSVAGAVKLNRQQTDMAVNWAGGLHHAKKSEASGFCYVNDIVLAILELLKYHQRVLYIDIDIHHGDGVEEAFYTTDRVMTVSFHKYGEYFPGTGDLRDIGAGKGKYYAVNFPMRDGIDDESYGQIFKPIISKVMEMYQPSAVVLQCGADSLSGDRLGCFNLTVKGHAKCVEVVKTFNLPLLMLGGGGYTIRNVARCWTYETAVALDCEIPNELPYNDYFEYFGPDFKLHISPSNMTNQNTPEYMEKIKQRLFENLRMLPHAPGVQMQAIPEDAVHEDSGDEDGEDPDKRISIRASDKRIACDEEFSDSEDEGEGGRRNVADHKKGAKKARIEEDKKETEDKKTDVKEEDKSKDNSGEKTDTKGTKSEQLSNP

DNA topoisomerase 1 = DNA topoisomerase 1 (Homo sapiens, UniProt P11387); assay: Inhibition of Topoisomerase 1 (unknown origin)
Histone deacetylase 1 [2] = biological target: T2, Histone deacetylase 1 (Homo sapiens, UniProt Q13547); assay: Inhibition of HDAC1 (unknown origin)
T2 sequence (Q13547 whole entry): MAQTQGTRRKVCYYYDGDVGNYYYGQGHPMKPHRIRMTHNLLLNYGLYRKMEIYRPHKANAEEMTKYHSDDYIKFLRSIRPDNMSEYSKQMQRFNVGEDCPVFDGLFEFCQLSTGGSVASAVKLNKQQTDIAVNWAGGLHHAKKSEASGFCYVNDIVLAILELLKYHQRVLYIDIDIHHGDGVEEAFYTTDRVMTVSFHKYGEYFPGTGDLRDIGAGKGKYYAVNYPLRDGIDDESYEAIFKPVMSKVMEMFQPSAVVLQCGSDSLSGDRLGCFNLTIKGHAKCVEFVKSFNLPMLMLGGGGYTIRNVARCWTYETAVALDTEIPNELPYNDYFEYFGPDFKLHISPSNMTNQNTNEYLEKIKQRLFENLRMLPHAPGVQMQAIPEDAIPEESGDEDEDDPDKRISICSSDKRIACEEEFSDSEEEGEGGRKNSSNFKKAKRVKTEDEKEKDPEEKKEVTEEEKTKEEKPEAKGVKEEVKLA

A549 [3] = assay: Antiproliferative activity against human A549 cells assessed as reduction in cell viability incubated for 3 days by Cell-titer glo reagent based assay; format: functional; settings: A549, 72 h
[4] = Half life in BALB/c mouse at 50 mg/kg, po by LC-MS/MS analysis; format: ADME, organism-based; settings: in vivo
Tubulin = assay: Inhibition of tubulin polymerization (unknown origin); format: protein-complex assay, Homo sapiens
[5] = biological target: T3, Poly [ADP-ribose] polymerase 1 (Homo sapiens, UniProt P09874); assay: Inhibition of PARP1 (unknown origin)
T3 sequence (P09874 whole entry): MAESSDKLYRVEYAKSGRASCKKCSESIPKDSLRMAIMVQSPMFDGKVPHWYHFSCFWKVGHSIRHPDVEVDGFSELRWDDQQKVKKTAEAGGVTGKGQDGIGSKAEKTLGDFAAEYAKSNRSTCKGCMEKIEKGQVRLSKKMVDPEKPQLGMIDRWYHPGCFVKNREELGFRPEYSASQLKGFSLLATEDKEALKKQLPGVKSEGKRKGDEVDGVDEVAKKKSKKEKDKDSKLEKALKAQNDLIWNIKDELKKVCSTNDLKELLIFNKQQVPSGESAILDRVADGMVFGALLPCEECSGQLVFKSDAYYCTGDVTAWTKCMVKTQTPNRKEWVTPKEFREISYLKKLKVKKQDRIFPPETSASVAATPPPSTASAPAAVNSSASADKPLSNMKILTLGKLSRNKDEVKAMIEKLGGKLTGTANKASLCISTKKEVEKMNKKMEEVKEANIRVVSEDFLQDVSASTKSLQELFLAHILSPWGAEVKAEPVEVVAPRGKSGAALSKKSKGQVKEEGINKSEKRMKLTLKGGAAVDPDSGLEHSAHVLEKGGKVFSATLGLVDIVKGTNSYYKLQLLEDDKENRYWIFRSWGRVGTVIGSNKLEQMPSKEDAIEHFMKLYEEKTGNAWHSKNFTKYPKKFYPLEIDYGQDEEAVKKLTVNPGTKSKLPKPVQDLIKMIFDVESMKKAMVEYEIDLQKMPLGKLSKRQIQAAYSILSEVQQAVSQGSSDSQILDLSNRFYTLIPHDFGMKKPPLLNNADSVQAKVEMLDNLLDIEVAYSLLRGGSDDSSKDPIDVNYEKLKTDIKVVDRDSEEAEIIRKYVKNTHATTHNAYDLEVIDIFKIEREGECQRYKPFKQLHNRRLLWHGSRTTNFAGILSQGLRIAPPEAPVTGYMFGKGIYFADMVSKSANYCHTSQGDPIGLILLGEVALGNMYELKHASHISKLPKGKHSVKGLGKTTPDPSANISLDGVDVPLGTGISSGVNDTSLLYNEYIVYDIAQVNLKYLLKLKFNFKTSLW

HCT-116 [6] = assay: Antiproliferative activity against human HCT-116 cells assessed as reduction in cell viability incubated for 3 days by Cell-titer glo reagent based assay; format: functional; settings: HCT-116, 72 h
[7] = Oral bioavailability in BALB/c mouse at 50 mg/kg by LC-MS/MS analysis; format: ADME, organism-based; settings: in vivo
A2780 = assay: Antiproliferative activity against human A2780 cells assessed as reduction in cell growth incubated for 72 hrs by SRB assay; format: functional, cell-based; settings: A2780, 72 h
[8] = Cytotoxicity against human MM472 cells assessed as reduction in cell viability incubated for 72 hrs by SRB assay; format: functional, cell-based; settings: MM472, 72 h
[9] = Antiproliferative activity against human Doxorubicin-resistant A2780-DX cells assessed as reduction in cell growth incubated for 72 hrs by SRB assay; format: functional, cell-based
NCI-H460 = assay: Antiproliferative activity against human NCI-H460 cells assessed as reduction in cell growth incubated for 72 hrs by SRB assay; format: functional, cell-based; settings: NCI-H460, 72 h
HT-29 [10] = assay: Antiproliferative activity against human HT-29 cells assessed as reduction in cell growth incubated for 72 hrs by SRB assay; format: functional, cell-based; settings: HT-29, 72 h
HepG2 [11] = assay: Antiproliferative activity against human HepG2 cells assessed as reduction in cell growth incubated for 72 hrs by SRB assay; format: functional, cell-based; settings: HepG2, 72 h
HeLa = assay: Antiproliferative activity against human Hela cells assessed as reduction in cell growth incubated for 72 hrs by SRB assay; format: functional, cell-based
CAPAN-1 = assay: Antiproliferative activity against human CAPAN-1 cells assessed as reduction in cell growth incubated for 72 hrs by SRB assay; format: functional, cell-based; settings: CAPAN-1, 72 h
A-431 = assay: Antiproliferative activity against human A-431 cells assessed as reduction in cell growth incubated for 72 hrs by SRB assay; format: functional, cell-based; settings: A-431, 72 h
Histone deacetylase 1 [12] = biological target: T2, Histone deacetylase 1; assay: Inhibition of human recombinant HDAC1 using fluorogenic peptide p53 (379 to 382 residues) RHKK(Ac) as substrate by fluorescence based analysis
DU-145 = assay: Antiproliferative activity against human DU-145 cells assessed as reduction in cell growth incubated for 72 hrs by SRB assay; format: functional, cell-based; settings: DU-145, 72 h
[13] = biological target: Polyamine deacetylase HDAC10 (Homo sapiens, UniProt Q969S8); assay: Inhibition of human recombinant HDAC10 using fluorogenic peptide p53 (379 to 382 residues) RHKK(Ac) as substrate by fluorescence based analysis
Sequence of Polyamine deacetylase HDAC10 (Q969S8 whole entry, the tested form may be a part): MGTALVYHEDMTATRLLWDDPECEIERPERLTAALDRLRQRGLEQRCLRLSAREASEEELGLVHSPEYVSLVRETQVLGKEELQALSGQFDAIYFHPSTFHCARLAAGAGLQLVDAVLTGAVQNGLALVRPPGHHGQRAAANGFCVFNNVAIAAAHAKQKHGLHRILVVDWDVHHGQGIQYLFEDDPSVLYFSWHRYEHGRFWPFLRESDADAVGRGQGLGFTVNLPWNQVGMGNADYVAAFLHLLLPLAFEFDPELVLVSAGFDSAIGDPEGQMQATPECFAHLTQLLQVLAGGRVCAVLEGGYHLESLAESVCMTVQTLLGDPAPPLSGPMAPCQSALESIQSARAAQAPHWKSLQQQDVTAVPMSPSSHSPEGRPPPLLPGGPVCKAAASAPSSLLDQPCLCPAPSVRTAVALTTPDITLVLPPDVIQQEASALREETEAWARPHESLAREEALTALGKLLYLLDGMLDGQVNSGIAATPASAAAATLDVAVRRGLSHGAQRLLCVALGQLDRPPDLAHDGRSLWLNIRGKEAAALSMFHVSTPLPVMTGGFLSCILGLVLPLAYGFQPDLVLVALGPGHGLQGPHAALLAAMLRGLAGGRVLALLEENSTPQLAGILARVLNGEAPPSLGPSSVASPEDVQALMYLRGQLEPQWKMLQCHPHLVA

[14] = Inhibition of human recombinant HDAC2 using fluorogenic peptide p53 (379 to 382 residues) RHKK(Ac) as substrate by fluorescence based analysis
[15] = biological target: T1, Protein deacetylase HDAC6; assay: Inhibition of human recombinant HDAC6 using fluorogenic peptide p53 (379 to 382 residues) RHKK(Ac) as substrate by fluorescence based analysis
[16] = Metabolic stability in human liver microsomes assessed as half life for 30 mins by LC-MS/MS analysis; format: ADME, Microsome
[17] = Metabolic stability in human liver microsomes assessed as intrinsic clearance measured for 30 mins by LC-MS/MS analysis; format: ADME, Microsome; settings: read-out: CLH
Histone deacetylase 4 = Histone deacetylase 4 (Homo sapiens, UniProt P56524); assay: Inhibition of HDAC4 (unknown origin)
Histone deacetylase 5 = Histone deacetylase 5 (Homo sapiens, UniProt Q9UQL6); assay: Inhibition of HDAC5 (unknown origin)
Sequence of Histone deacetylase 5 (Q9UQL6 whole entry): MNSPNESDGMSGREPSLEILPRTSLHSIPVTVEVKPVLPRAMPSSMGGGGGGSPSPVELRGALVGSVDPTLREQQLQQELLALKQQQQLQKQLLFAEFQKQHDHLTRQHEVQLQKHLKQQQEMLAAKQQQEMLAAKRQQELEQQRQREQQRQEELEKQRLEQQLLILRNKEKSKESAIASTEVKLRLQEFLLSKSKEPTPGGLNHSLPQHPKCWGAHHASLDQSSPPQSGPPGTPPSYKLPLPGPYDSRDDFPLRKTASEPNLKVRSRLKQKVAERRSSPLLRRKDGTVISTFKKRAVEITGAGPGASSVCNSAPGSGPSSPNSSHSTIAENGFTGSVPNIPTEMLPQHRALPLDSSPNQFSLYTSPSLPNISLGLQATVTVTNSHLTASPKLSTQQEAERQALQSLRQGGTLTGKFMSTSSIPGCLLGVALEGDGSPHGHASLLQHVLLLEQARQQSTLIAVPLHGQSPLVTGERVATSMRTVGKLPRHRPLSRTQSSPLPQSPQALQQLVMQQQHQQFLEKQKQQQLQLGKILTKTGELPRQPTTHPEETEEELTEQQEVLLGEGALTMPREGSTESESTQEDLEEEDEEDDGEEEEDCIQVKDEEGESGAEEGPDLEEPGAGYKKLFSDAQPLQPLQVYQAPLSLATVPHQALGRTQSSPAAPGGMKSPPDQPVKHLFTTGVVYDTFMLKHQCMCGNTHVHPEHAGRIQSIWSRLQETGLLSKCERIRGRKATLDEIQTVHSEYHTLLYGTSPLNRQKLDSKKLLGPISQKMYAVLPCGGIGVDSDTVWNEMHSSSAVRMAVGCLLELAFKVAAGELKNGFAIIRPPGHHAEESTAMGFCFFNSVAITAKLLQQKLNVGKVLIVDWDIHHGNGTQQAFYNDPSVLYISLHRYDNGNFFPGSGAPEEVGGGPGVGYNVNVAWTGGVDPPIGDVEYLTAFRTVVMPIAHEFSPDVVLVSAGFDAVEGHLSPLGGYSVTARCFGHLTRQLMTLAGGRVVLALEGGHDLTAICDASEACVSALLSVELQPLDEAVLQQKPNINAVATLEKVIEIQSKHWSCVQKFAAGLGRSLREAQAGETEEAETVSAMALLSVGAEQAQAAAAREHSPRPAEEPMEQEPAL

HepG2 [18] = assay: Antiproliferative activity against human HepG2 cells assessed as reduction in cell viability incubated for 48 hrs by MTT assay; settings: HepG2, 48 h
SNU-475 = assay: Antiproliferative activity against human SNU-475 cells assessed as reduction in cell viability incubated for 48 hrs by MTT assay; settings: SNU-475, 48 h
Bel-7402 = assay: Antitumor activity against human Bel-7402 cells xenografted in nude mouse model assessed as tumor growth inhibition at 50 mg/kg, IG administered for 21 days relative to control; settings: Bel-7402, po, 504 h, read-out: TGI
EA.hy 926 = assay: Antiproliferative activity against human EA.hy 926 cells assessed as reduction in cell growth incubated for 72 hrs by MTT assay; format: functional, cell-based; settings: EA.hy 926, 72 h
A549 [19] = assay: Antiproliferative activity against human A549 cells; format: functional, cell-based
HT-29 [20] = assay: Antiproliferative activity against human HT-29 cells; format: functional, cell-based
HepG2 [21] = assay: Antiproliferative activity against human HepG2 cells; format: functional, cell-based
Histone deacetylase 8 = Histone deacetylase 8 (Homo sapiens, UniProt Q9BY41); assay: Inhibition of HDAC8 (unknown origin)
Sequence of Histone deacetylase 8 (Q9BY41 whole entry): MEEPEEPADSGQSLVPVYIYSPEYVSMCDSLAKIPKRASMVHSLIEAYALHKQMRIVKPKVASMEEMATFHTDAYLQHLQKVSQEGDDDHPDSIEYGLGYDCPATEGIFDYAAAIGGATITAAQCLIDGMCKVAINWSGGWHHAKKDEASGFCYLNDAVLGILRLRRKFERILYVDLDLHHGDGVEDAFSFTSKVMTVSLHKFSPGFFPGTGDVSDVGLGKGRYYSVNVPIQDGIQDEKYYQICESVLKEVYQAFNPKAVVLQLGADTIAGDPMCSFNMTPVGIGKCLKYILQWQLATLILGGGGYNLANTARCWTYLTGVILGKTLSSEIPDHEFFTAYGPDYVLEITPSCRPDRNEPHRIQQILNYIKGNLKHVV

HCC1937 = assay: Antiproliferative activity against human HCC1937 cells assessed as reduction in cell viability incubated for 48 hrs by MTT assay; format: functional, cell-based; settings: HCC1937, 48 h
[22] = biological target: T3, Poly [ADP-ribose] polymerase 1; assay: Inhibition of PARP-1 (unknown origin)
MCF7 = assay: Antiproliferative activity against human MCF7 cells assessed as reduction in cell viability incubated for 48 hrs by MTT assay; format: functional, cell-based; settings: MCF7, 48 h
K562 = assay: Antiproliferative activity against human K562 cells assessed as reduction in cell viability incubated for 48 hrs by MTT assay; format: functional, cell-based; settings: K562, 48 h
HCT-116 [23] = assay: Antiproliferative activity against human HCT-116 cells assessed as reduction in cell viability incubated for 48 hrs by MTT assay; format: functional, cell-based; settings: HCT-116, 48 h

COc1ccc(CN(C(=O)Cc2ccc(C(=O)Nc3ccccc3N)cc2)c2cc(OC)c(OC)c(OC)c2)cc1O
IC50 [1]: 77.4 µM
IC50 (Histone deacetylase 3): 5.27 µM
IC50 (MGC-803): 0.039 µM
IC50 (Histone deacetylase 2): 3.01 µM

CCc1c2c(nc3ccc(O)cc13)-c1cc3c(c(=O)n1C2)COC(=O)[C@]3(O)CC [7-ETHYL-10-HYDROXYCAMPTOTHECIN]
IC50 (DNA topoisomerase 1): 0.77 µM

COc1cc(/C=C/C(=O)c2ccc(NC(=O)c3ccccc3CN3C(=O)c4ccccc4C3=O)cc2)cc(OC)c1OC
IC50 (Histone deacetylase 1 [2]): 0.22 µM
IC50 (Histone deacetylase 2): 0.43 µM

CCOC(=O)Nc1nc2ccc(-c3cc(Cc4n[nH]c(=O)c5ccccc45)ccc3F)cc2[nH]1
IC50 (A549 [3]): 0.141 µM
half-life [4]: 3.28 h
IC50 (Tubulin): 0.99 µM
IC50 [5]: 0.007 µM
IC50 (HCT-116 [6]): 0.352 µM
bioavailability [7]: 31%

CC[C@]1(O)C(=O)OCc2c1cc1n(c2=O)Cc2c-1nc1ccc(O)cc1c2/C=N/OCCCCCC(=O)NO
IC50 (A2780): 0.03 µM
IC50 [8]: 0.048 µM
IC50 [9]: 0.03 µM
IC50 (NCI-H460): 0.03 µM
IC50 (HT-29 [10]): 0.03 µM
IC50 (HepG2 [11]): 0.03 µM
IC50 (HeLa): 0.03 µM
IC50 (CAPAN-1): 0.03 µM
IC50 (A-431): 0.03 µM
IC50 (Histone deacetylase 1 [12]): 5.26 µM
IC50 (DU-145): 0.03 µM
IC50 [13]: 2.24 µM
IC50 [14]: 9.33 µM
IC50 [15]: 1.56 µM

COc1ccc(-c2cccc(-c3cc(OC)c(OC)c(OC)c3)n2)cc1C(=O)NO
half-life [16]: 0.913 h
CLint scaled [17]: 22.8 mL/min/kg
IC50 (Tubulin): 2.4 µM

Cn1c(CCCCCCC(=O)NO)nc2ccc(N(CCCl)CCCl)cc21
IC50 (Histone deacetylase 1 [2]): 0.017 µM
IC50 (Histone deacetylase 4): 0.0064 µM
IC50 [1]: 0.072 µM
IC50 (Histone deacetylase 3): 0.025 µM
IC50 (Histone deacetylase 5): 0.107 µM
IC50 (Histone deacetylase 2): 0.01 µM

COc1ccc(S(=O)(=O)N(CCSC(=S)N2CCN(C)CC2)c2cc(OC)c(OC)c(OC)c2)cc1
IC50 (HepG2 [18]): 0.57 µM
IC50 (SNU-475): 0.73 µM
inhibition in vivo at 50 mg/kg (Bel-7402): 43%

COc1ccc(-c2ocnc2-c2cc(Br)c(OC)c(OC)c2)cc1OCCCCCC(=O)NO
IC50 (EA.hy 926): 0.41 µM

COc1ccc2c3ccnc(C)c3n(CC3CCN(c4ncc(C(=O)NO)cn4)CC3)c2c1
IC50 (A549 [19]): 5.96 µM
IC50 (HT-29 [20]): 1.88 µM
IC50 (HepG2 [21]): 2.88 µM

O=C(Cc1ccc(/C=C/C(=O)c2ncc[nH]2)cc1)Nc1ccc(F)cc1
IC50 (Histone deacetylase 1 [2]): 1.8 µM
IC50 (Histone deacetylase 8): 1.4 µM
IC50 [1]: 2 µM
IC50 (Histone deacetylase 3): 1.8 µM
IC50 (Histone deacetylase 2): 2.1 µM

Cc1ccc(Cn2cc(CSC(=S)N3CCN(C(=O)OC(C)(C)C)CC3)nn2)cc1
IC50 (Tubulin): 1.27 µM

O=C(c1cc(Cc2n[nH]c(=O)c3ccccc23)ccc1F)N1CCN(c2c3ccccc3nc3ccccc23)CC1
IC50 (HCC1937): 7.96 µM
IC50 [22]: 11.8 µM
IC50 (MCF7): 13.8 µM
IC50 (K562): 3.94 µM
IC50 (HCT-116 [23]): 12.9 µM
